{"source": "patent US20180185408A1", "about": "“ANTIFUNGAL NYLON-3 POLYMERS AND COMBINATION THERAPY USING THEM TO TREAT FUNGAL INFECTIONS” (priority 2016, published 2018)", "key": {"Candida albicans": {"system": "Candida albicans", "test": "Checkerboard microdilution synergy (FIC)", "format": "cell-based", "settings": "for MIC: Candida albicans; for MIC Combined: FLC and MM:TM in combination"}, "Cryptococcus amylolentus": {"system": "Cryptococcus amylolentus", "test": "MIC100 against yeast (CLSI M27-A3)", "format": "cell-based"}, "C. krusei": {"system": "C. krusei", "test": "MIC100 against yeast (CLSI M27-A3)", "format": "cell-based, Candida krusei"}, "[1]": {"settings": "MM:TM (40:60) with Fluconazole, isolate K1 (Fluconazole Resistant), […]10^5 cells/mL, 30° C."}}, "note": "Where two headings read alike, the source gives them in different places. Marks after values point to notes of the source that are not given here.", "data": [{"smiles": "OC(Cn1cncn1)(Cn1cncn1)c1ccc(F)cc1F", "note": "[FLC, fluconazole]", "values": [{"measurement": "MIC", "setting": "Candida albicans; 48 h, K1, FLC and MM:TM, single agent, […]10^5 cells/mL, 30°C, OD600 48 h, read-out: MIC Alone", "result": "> 164", "unit": "µM"}, {"measurement": "MIC", "setting": "Candida albicans; 48 h, K1, Fluconazole and MM:TM, […]10^5 cells/mL, 30°C, OD600 48 h, Avg., read-out: MIC alone", "result": "> 163", "unit": "µM"}, {"measurement": "MIC", "setting": "Candida albicans; 48 h, K1, Fluconazole and MM:TM, […]10^5 cells/mL, 30°C, OD600 48 h, trial 1, read-out: MIC alone", "result": "> 81.6", "unit": "µM"}, {"measurement": "MIC", "setting": "Candida albicans; 48 h, K1, Fluconazole and MM:TM, […]10^5 cells/mL, 30°C, OD600 48 h, trial 2, read-out: MIC alone", "result": "> 163", "unit": "µM"}, {"measurement": "MIC", "setting": "Candida albicans; 48 h, K1, Fluconazole and MM:TM, […]10^5 cells/mL, 30°C, OD600 48 h, trial 3, read-out: MIC alone", "result": "> 81.6", "unit": "µM"}, {"measurement": "MIC", "setting": "Candida albicans; 48 h, K1, fluconazole and MM:TM, […]10^5 cells/mL, 30°C, OD600 48 h, Avg., read-out: MIC alone", "result": "> 50", "unit": "µg/mL"}, {"measurement": "MIC", "setting": "Candida albicans; 48 h, K1, fluconazole and MM:TM, […]10^5 cells/mL, 30°C, OD600 48 h, trial 1, read-out: MIC alone", "result": "> 25", "unit": "µg/mL"}, {"measurement": "MIC", "setting": "Candida albicans; 48 h, K1, fluconazole and MM:TM, […]10^5 cells/mL, 30°C, OD600 48 h, trial 2, read-out: MIC alone", "result": "> 50", "unit": "µg/mL"}, {"measurement": "MIC", "setting": "Candida albicans; 48 h, K1, fluconazole and MM:TM, […]10^5 cells/mL, 30°C, OD600 48 h, trial 3, read-out: MIC alone", "result": "> 25", "unit": "µg/mL"}, {"measurement": "MIC", "setting": "Candida albicans; [1]", "result": "> 50", "unit": "µg/mL"}, {"measurement": "MIC", "setting": "Candida albicans; NM20 with Fluconazole, C. albicans K1, […] 10^5 cells/mL", "result": "> 25", "unit": "µg/mL"}, {"measurement": "MIC", "setting": "Candida albicans; SC5314, 48 h, SC5314, FLC and MM:TM, single agent, […]10^5 cells/mL, 30°C, OD600 48 h, read-out: MIC Alone", "result": "< 1", "unit": "µM"}, {"measurement": "MIC", "setting": "Candida albicans; SC5314, 48 h, SC5314, Fluconazole and MM:TM, […]10^5 cells/mL, 30°C, OD600 48 h, Avg., read-out: MIC alone", "result": "< 1", "unit": "µM"}, {"measurement": "MIC", "setting": "Candida albicans; SC5314, 48 h, SC5314, Fluconazole and MM:TM, […]10^5 cells/mL, 30°C, OD600 48 h, trial 1, read-out: MIC alone", "result": "< 0.7", "unit": "µM"}, {"measurement": "MIC", "setting": "Candida albicans; SC5314, 48 h, SC5314, Fluconazole and MM:TM, […]10^5 cells/mL, 30°C, OD600 48 h, trial 2, read-out: MIC alone", "result": "< 2.6", "unit": "µM"}, {"measurement": "MIC", "setting": "Candida albicans; SC5314, 48 h, SC5314, Fluconazole and MM:TM, […]10^5 cells/mL, 30°C, OD600 48 h, trial 3, read-out: MIC alone", "result": "< 1.3", "unit": "µM"}, {"measurement": "MIC", "setting": "Candida albicans; SC5314, 48 h, SC5314, fluconazole and MM:TM, […]10^5 cells/mL, 30°C, OD600 48 h, Avg., read-out: MIC alone", "result": "< 0.3", "unit": "µg/mL"}, {"measurement": "MIC", "setting": "Candida albicans; SC5314, 48 h, SC5314, fluconazole and MM:TM, […]10^5 cells/mL, 30°C, OD600 48 h, trial 1, read-out: MIC alone", "result": "< 0.2", "unit": "µg/mL"}, {"measurement": "MIC", "setting": "Candida albicans; SC5314, 48 h, SC5314, fluconazole and MM:TM, […]10^5 cells/mL, 30°C, OD600 48 h, trial 2, read-out: MIC alone", "result": "< 0.8", "unit": "µg/mL"}, {"measurement": "MIC", "setting": "Candida albicans; SC5314, 48 h, SC5314, fluconazole and MM:TM, […]10^5 cells/mL, 30°C, OD600 48 h, trial 3, read-out: MIC alone", "result": "< 0.4", "unit": "µg/mL"}, {"measurement": "MIC", "setting": "Candida albicans; SC5314, NM20 with Fluconazole, C. albicans SC5314, […] 10^5 cells/mL", "result": "> 25", "unit": "µg/mL"}, {"measurement": "MIC", "setting": "Candida albicans; SC5314, Table 43, MM:TM with Fluconazole, isolate SC5314, […] 10^5 cells/mL", "result": "< 0.3", "unit": "µg/mL"}, {"measurement": "MIC", "setting": "Candida albicans; Table 43, MM:TM with Fluconazole, isolate K1, […] 10^5 cells/mL", "result": "> 50", "unit": "µg/mL"}, {"measurement": "MIC Combined", "setting": "Candida albicans; K1, […]10^5 cells/mL, 30°C, OD600 48 h", "result": "<1.3^i μM"}, {"measurement": "FIC", "setting": "Candida albicans; K1, Fluconazole and MM:TM, Avg., Table 13", "result": 0.002}, {"measurement": "MIC combo", "setting": "Candida albicans; K1, Fluconazole and MM:TM, […]10^5 cells/mL, 30°C, OD600 48 h, Avg.", "result": "<1.3", "unit": "µM"}, {"measurement": "MIC combo", "setting": "Candida albicans; K1, Fluconazole and MM:TM, […]10^5 cells/mL, 30°C, OD600 48 h, trial 1", "result": "<1.3", "unit": "µM"}, {"measurement": "MIC combo", "setting": "Candida albicans; K1, Fluconazole and MM:TM, […]10^5 cells/mL, 30°C, OD600 48 h, trial 2", "result": "<2.6", "unit": "µM"}, {"measurement": "MIC combo", "setting": "Candida albicans; K1, Fluconazole and MM:TM, […]10^5 cells/mL, 30°C, OD600 48 h, trial 3", "result": "<1.3", "unit": "µM"}, {"measurement": "FIC", "setting": "Candida albicans; K1, Fluconazole and MM:TM, trial 1, Table 13", "result": 0.004}, {"measurement": "FIC", "setting": "Candida albicans; K1, Fluconazole and MM:TM, trial 2, Table 13", "result": 0.004}, {"measurement": "FIC", "setting": "Candida albicans; K1, Fluconazole and MM:TM, trial 3, Table 13", "result": 0.004}, {"measurement": "FIC", "setting": "Candida albicans; K1, fluconazole and MM:TM, Avg.", "result": 0.002}, {"measurement": "MIC combo", "setting": "Candida albicans; K1, fluconazole and MM:TM, […]10^5 cells/mL, 30°C, OD600 48 h, Avg.", "result": "<0.4", "unit": "µg/mL"}, {"measurement": "MIC combo", "setting": "Candida albicans; K1, fluconazole and MM:TM, […]10^5 cells/mL, 30°C, OD600 48 h, trial 1", "result": "<0.4", "unit": "µg/mL"}, {"measurement": "MIC combo", "setting": "Candida albicans; K1, fluconazole and MM:TM, […]10^5 cells/mL, 30°C, OD600 48 h, trial 2", "result": "<0.8", "unit": "µg/mL"}, {"measurement": "MIC combo", "setting": "Candida albicans; K1, fluconazole and MM:TM, […]10^5 cells/mL, 30°C, OD600 48 h, trial 3", "result": "<0.4", "unit": "µg/mL"}, {"measurement": "FIC", "setting": "Candida albicans; K1, fluconazole and MM:TM, trial 1", "result": 0.004}, {"measurement": "FIC", "setting": "Candida albicans; K1, fluconazole and MM:TM, trial 2", "result": 0.004}, {"measurement": "FIC", "setting": "Candida albicans; K1, fluconazole and MM:TM, trial 3", "result": 0.004}, {"measurement": "improvement in antifungal activity (fluconazole MIC in combination with copolymer)", "setting": "Candida albicans; K1 strain", "result": "≥ 100", "unit": "fold"}, {"measurement": "FICazole", "setting": "Candida albicans; [1]", "result": 0.004}, {"measurement": "FICazole", "setting": "Candida albicans; MM:TM (40:60) with Fluconazole, isolate SC5314 (Senstive), […]10^5 cells/mL, 30° C.", "result": 1}, {"measurement": "MIC Combined", "setting": "Candida albicans; SC5314, […]10^5 cells/mL, 30°C, OD600 48 h", "result": "<1.0", "unit": "µM"}, {"measurement": "FIC", "setting": "Candida albicans; SC5314, Fluconazole and MM:TM, Avg., Table 13", "result": 1}, {"measurement": "MIC combo", "setting": "Candida albicans; SC5314, Fluconazole and MM:TM, […]10^5 cells/mL, 30°C, OD600 48 h, Avg.", "result": "<1.0", "unit": "µM"}, {"measurement": "MIC combo", "setting": "Candida albicans; SC5314, Fluconazole and MM:TM, […]10^5 cells/mL, 30°C, OD600 48 h, trial 1", "result": "<0.7", "unit": "µM"}, {"measurement": "MIC combo", "setting": "Candida albicans; SC5314, Fluconazole and MM:TM, […]10^5 cells/mL, 30°C, OD600 48 h, trial 2", "result": "<2.6", "unit": "µM"}, {"measurement": "MIC combo", "setting": "Candida albicans; SC5314, Fluconazole and MM:TM, […]10^5 cells/mL, 30°C, OD600 48 h, trial 3", "result": "<1.3", "unit": "µM"}, {"measurement": "FIC", "setting": "Candida albicans; SC5314, Fluconazole and MM:TM, trial 1, Table 13", "result": 1}, {"measurement": "FIC", "setting": "Candida albicans; SC5314, Fluconazole and MM:TM, trial 2, Table 13", "result": 1}, {"measurement": "FIC", "setting": "Candida albicans; SC5314, Fluconazole and MM:TM, trial 3, Table 13", "result": 1}, {"measurement": "FIC", "setting": "Candida albicans; SC5314, fluconazole and MM:TM, Avg.", "result": 1}, {"measurement": "MIC combo", "setting": "Candida albicans; SC5314, fluconazole and MM:TM, […]10^5 cells/mL, 30°C, OD600 48 h, Avg.", "result": "<0.3", "unit": "µg/mL"}, {"measurement": "MIC combo", "setting": "Candida albicans; SC5314, fluconazole and MM:TM, […]10^5 cells/mL, 30°C, OD600 48 h, trial 1", "result": "<0.2", "unit": "µg/mL"}, {"measurement": "MIC combo", "setting": "Candida albicans; SC5314, fluconazole and MM:TM, […]10^5 cells/mL, 30°C, OD600 48 h, trial 2", "result": "<0.8", "unit": "µg/mL"}, {"measurement": "MIC combo", "setting": "Candida albicans; SC5314, fluconazole and MM:TM, […]10^5 cells/mL, 30°C, OD600 48 h, trial 3", "result": "<0.4", "unit": "µg/mL"}, {"measurement": "FIC", "setting": "Candida albicans; SC5314, fluconazole and MM:TM, trial 1", "result": 1}, {"measurement": "FIC", "setting": "Candida albicans; SC5314, fluconazole and MM:TM, trial 2", "result": 1}, {"measurement": "FIC", "setting": "Candida albicans; SC5314, fluconazole and MM:TM, trial 3", "result": 1}, {"measurement": "MIC50", "setting": "Cryptococcus amylolentus; CBS6039, Cryptococcus amolyentous CBS 6039", "result": 16, "unit": "µg/mL"}, {"measurement": "MIC50", "setting": "Cryptococcus amylolentus; CBS6273, Cryptococcus amolyentous CBS 6273", "result": 16, "unit": "µg/mL"}, {"measurement": "polymer efficacy against budding yeasts, 50%", "setting": "C. krusei; C. krusei QC, CLSI QC isolate for susceptibility testing", "result": 32}, {"measurement": "MIC50", "setting": "C. krusei; Pichia kudriavzevii, Candida krusei QC", "result": 32, "unit": "µg/mL"}]}]}
